Series [1] addresses T1, Btk enzyme (His-tagged, full-length) (Homo sapiens, UniProt Q06187).
T1 construct: 5-10 nM Btk enzyme (His-tagged, full-length); His
Briefly: Bruton's Tyrosine Kinase (Btk) Inhibition Assay (33P filtration capture). It counts as biochemical. The conditions noted are these: Bruton's tyrosine kinase Assay (Example 34), 100 μM ATP.

The next series deals with Ramos cells. Briefly: Inhibition of B-cell Activation - B cell FLIPR assay in Ramos cells. In kind it is cell-based. The conditions noted are these: Homo sapiens, 0.5 h, intracellular calcium increase stimulated by 10 μg/mL anti-IgM, compounds incubated 30 min at RT. The source says: Inhibition of B-cell Activation—B cell FLIPR assay in Ramos cells
The B cell FLIPR assay is a cell based functional method of determining the effect of potential inhibitors of the intracellular calcium increase from stimulation by an anti-IgM antibody. Ramos cells (human Burkitt's lymphoma cell line. ATCC-No. CRL-1596) were cultivated in Growth Media (described below). One day prior to assay, Ramos cells were resuspended in fresh growth media (same as above) and set at a concentration of 0.5×10^6/mL in tissue culture flasks. On day of assay, cells are counted and set at a concentration of 1×10^6/mL1 in growth media supplemented with 1 μM FLUO-3AM(TefLabs Cat-No. 0116, prepared in anhydrous DMSO and 10% Pluronic acid) in a tissue culture flask, and incubated at 37° C. (4% CO2) for one h. To remove extracellular dye, cells were collected by centrifugation (5 min, 1000 rpm), resuspended in FLIPR buffer (described below) at 1×10^6 cells/mL and then dispensed into 96-well poly-D-lysine coated black/clear plates (BD Cat-No. 356692) at 1×10^5 cells per well. Test compounds were added at various concentrations ranging from 100 μM to 0.03 μM (7 concentrations, details below), and allowed to incubate with cells for 30 min at RT. Ramos cell Ca^2+ signaling was stimulated by the addition of 10 μg/mL anti-IgM (Southern Biotech, Cat-No. 2020-01) and measured on a FLIPR (Molecular Devices, captures images of 96 well plates using a CCD camera with an argon laser at 480nm excitation).
Growth Medium: RPMI 1640 medium with L-glutamine (Invitrogen, Cat-No. 61870-010), 10% Fetal Bovine Serum (FBS, Summit Biotechnology Cat-No. FP-100-05); 1 mM Sodium Pyruvate (Invitrogen Cat. No. 11360-070).
FLIPR buffer: HBSS (Invitrogen, Cat-No. 141175-079), 2 mM CaCl2 (Sigma Cat-No. C-4901), HEPES (Invitrogen, Cat-No. 15630-080), 2.5mM Probenecid (Sigma, Cat-No. P-8761), 0.1% BSA (Sigma, Cat-No. A-7906), 11 mM Glucose (Sigma, Cat-No. G-7528)
Compound dilution details:
In order to achieve the highest final assay concentration of 100 μM, 24 μL of 10 mM compound stock solution (made in DMSO) is added directly to 576 μL of FLIPR buffer. The test compounds are diluted in FLIPR Buffer (using Biomek 2000 robotic pipettor) resulting in the following dilution scheme: vehicle, 1.00×10^−4 M, 1.00×10^−5, 3.16×10^−6, 1.00×10^−6, 3.16×10^−7, 1.00×10^−7, 3.16×10^−8.
Intracellular increases in calcium were reported using a max-min statistic (subtracting the resting baseline from the peak caused by addition of the stimulatory antibody using a Molecular Devices FLIPR control and statistic exporting software. The IC50 was determined using a non-linear curve fit (GraphPad Prism software). Representative results are in Table III.
(Calcium assays in cells follow changes in intracellular calcium, usually with a dye or a luminescent sensor.)

Structures are written as SMILES. Some results are limits rather than exact numbers.

T1 sequence (Q06187 whole entry): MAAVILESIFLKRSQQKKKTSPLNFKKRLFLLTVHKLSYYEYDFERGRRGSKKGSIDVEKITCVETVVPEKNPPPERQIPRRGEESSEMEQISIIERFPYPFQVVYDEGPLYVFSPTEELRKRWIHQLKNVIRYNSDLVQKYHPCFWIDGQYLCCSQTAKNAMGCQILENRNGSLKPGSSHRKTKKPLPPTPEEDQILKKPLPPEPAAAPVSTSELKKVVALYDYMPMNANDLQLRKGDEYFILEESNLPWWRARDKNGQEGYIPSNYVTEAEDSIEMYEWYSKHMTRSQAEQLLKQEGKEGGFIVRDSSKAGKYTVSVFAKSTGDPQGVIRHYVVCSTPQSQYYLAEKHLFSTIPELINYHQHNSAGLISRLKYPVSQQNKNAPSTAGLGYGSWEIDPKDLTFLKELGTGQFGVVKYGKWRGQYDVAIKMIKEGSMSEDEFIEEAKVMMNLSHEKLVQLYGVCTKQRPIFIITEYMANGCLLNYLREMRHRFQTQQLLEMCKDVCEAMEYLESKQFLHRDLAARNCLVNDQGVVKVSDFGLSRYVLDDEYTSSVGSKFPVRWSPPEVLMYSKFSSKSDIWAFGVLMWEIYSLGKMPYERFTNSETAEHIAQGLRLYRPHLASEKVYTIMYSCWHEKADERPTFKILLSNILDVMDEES

As usually defined, the IC50 is the midpoint of a concentration-inhibition curve. The term melting point denotes the temperature, or range, at which the solid turns liquid. Regarding `Cc1c(-c2cc(Nc3ccc(C(=O)N4CCOCC4)cn3)c(=O)n(C)n2)cccc1-n1cnc2cc(C(C)(C)C)ccc2c1=O` [Compound I-8, 7-tert-Butyl-3-(2-methyl-3-{1-methyl-5-[5-(morpholine-4-carbonyl)-pyridin-2-ylamino]-6-oxo-1,6-dihydro-pyridazin-3-yl}-phenyl)-3H-quinazolin-4-one], the melting point fell in the range of 188.5 to 191 °C. The compound further showed an IC50 in series [1] (Table I pyridazinones) of 116 nM. Besides, the IC50 in the series with Ramos cells came out at 205 nM.

For `COc1nccc(Nc2cc(-c3cccc(NC(=O)c4ccc(C(C)(C)C)cc4)c3C)nn(C)c2=O)n1` [Compound I-17], the melting point was in the range of 262 to 264 °C. For the same compound, in series [1] (Table I pyridazinones), half-maximal inhibition (IC50) required 104 nM. Also, the IC50 in the series on Ramos cells amounted to 415 nM.

`Cn1nc(-c2cccc(CC(=O)NCCOC(C)(C)C)c2)cc(Nc2ccc(C(=O)N3CCOCC3)cn2)c1=O` [Compound I-32] had a melting point of 220 to 221 °C. In series [1] (Table I pyridazinones), this compound showed an IC50 of 820 nM. Moreover, the IC50 in the series on Ramos cells came to 32 nM.

With `Cc1c(NC(=O)c2ccc(C(C)(C)C)cc2)cccc1-c1cc(Nc2ccc(C(=O)N3CCOCC3)cn2)c(=O)n(C)c1` [II-2, 4-tert-Butyl-N-(2-methyl-3-{1-methyl-5-[5-(morpholine-4-carbonyl)-pyridin-2-ylamino]-6-oxo-1,6-dihydro-pyridin-3-yl}-phenyl)-benzamide], in the series on Ramos cells, the IC50 worked out at 67 nM.

In turn, `CNC(=O)Nc1cc(-c2cccc(NC(=O)c3ccc(N(C)C)cc3)c2C)cn(C)c1=O` [II-13] showed a melting point of 291 to 292 °C. This compound also gave an IC50 in series [1] (Table II pyridinones) of 96 nM. For the same compound, the IC50 in the series with Ramos cells worked out at 552 nM.

On to `CCNC(=O)Nc1cc(-c2cccc(NC(=O)c3ccc(C(C)(C)C)cc3)c2CO)cn(C)c1=O` [II-56, 4-tert-Butyl-N-{3-[5-(3-ethyl-ureido)-1-methyl-6-oxo-1,6-dihydro-pyridin-3-yl]-2-hydroxymethyl-phenyl}-benzamide], for which the IC50 in series [1] (Table II pyridinones) was < 10 nM; in the series on Ramos cells, 4 nM.

Turning to `Cn1cc(-c2cccc(NC(=O)c3ccc(C(C)(C)C)cc3)c2CO)cc(Nc2ccc(C(=O)N3CCOCC3)cn2)c1=O` [II-58], in the series on Ramos cells, the IC50 was 15 nM.

These data come from patent publication US7943618B2, “Btk protein kinase inhibitors” (Roche Palo Alto LLC, priority 2007, dated 2011).
